In US20240226106A1, “INHIBITORS OF PLASMA KALLIKREIN” (SHIRE HUMAN GENETIC THERAPIES, INC., priority 2021, published 2024):

What was measured:
[1] = biological target: human activated kallikrein enzyme (Homo sapiens, UniProt P03952); assay: Inhibition of human activated plasma kallikrein, fluorogenic peptide substrate (PFR-AMC), 500 pM enzyme format; assay type: biochemical; details: 500 pM activated kallikrein, 30 min preincubation, 10 min reaction, room temperature, read-out: Primary Dose Response Assay: Average EC50
Sequence of human activated kallikrein enzyme (P03952 391-638 limits assumed): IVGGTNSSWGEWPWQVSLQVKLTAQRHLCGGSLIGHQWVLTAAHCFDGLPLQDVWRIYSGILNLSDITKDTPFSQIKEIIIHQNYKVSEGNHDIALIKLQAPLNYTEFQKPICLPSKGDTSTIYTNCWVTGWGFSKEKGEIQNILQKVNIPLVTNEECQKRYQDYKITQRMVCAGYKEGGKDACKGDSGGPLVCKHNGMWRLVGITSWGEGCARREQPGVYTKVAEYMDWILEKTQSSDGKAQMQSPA
Sequence of human activated kallikrein enzyme (P03952 20-390 partner limits assumed): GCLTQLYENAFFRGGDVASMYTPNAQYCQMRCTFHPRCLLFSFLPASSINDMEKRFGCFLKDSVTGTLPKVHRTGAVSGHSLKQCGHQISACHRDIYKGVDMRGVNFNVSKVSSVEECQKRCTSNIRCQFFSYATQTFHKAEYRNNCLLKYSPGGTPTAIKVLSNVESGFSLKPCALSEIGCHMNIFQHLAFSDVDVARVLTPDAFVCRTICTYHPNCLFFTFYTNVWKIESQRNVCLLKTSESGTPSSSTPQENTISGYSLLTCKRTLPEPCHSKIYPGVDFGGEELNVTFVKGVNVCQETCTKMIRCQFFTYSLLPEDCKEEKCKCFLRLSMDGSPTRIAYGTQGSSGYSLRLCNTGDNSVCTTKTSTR
Method in brief: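 Enzyme at 500 pM with […] PFR-AMC in 20 mM Tris pH 7.5, 1 mM EDTA, 150 mM NaCl, 0.1% PEG-400, 0.1% Triton X-100. Inhibitor preincubated 30 min, then 10 min reaction at room temperature; AMC fluorescence read at 380 nm excitation/460 nm emission.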

plasma kallikrein = biological target: T1, plasma kallikrein (Homo sapiens, UniProt P03952); assay: Neat human plasma assay (fluorogenic peptide), contact pathway-activated plasma; assay type: biochemical; details: citrated human plasma, 10 nM human FXIIa activation, 100 μM PFR-AMC, room temperature; read-out: Human Plasma Assay: IC90
T1 construct: from tissue; host or cells: sodium citrate collected human plasma
T1 sequence (P03952 391-638 limits assumed): as the sequence (P03952 391-638 limits assumed) above
T1 sequence (P03952 20-390 partner limits assumed): as the sequence (P03952 20-390 partner limits assumed) above
Protocol: To analyze inhibition of plasma kallikrein in an ex vivo setting, the potency of compounds was measure in contact pathway-activated plasma assays. In a fluorogenic peptide substrate assay, test compounds dissolved in DMSO were added to sodium citrate collected human or rat plasma in a 96-well microplate. Alternatively, citrated plasma was collected from rats administered the compounds orally or by IV. 10 nM of human FXIIa (Enzyme Research Laboratories) diluted in PKa buffer (20 mM Tris-HCl, pH 7.5, 150 mM NaCl, 1 mM EDTA, 0.100 PEG-8000, and 0.1% Triton X-100) was added to the plasma, followed by the 100 μM of the profluorescent, synthetic plasma kallikrein substrate PFR-AMC (also diluted in PKa buffer). Final plasma concentration in the reaction was […]. Fluorescence was immediately monitored by excitation/emission wavelengths of 360 nm/480 nm respectively over a period of 5 minutes in a microplate reader. The resulting linear increase in fluorescence emission (reflecting PKa proteolysis of PFR-AMC substrate) was fit to extract a proteolytic rate (fluorescent units over time), and this rate was subsequently plotted against compound inhibitor concentration. Resulting plots were fit to a standard 4-parameter IC50/C90 equation to determine min/max values, IC50/90, and slope. All experimental steps were performed at room temperature.

Structure (SMILES)	EC50 [1]	IC90 (plasma kallikrein)
Cc1ccnc([C@H]2C[C@@H]2C(=O)Nc2nc(C)nc(OCc3cn4cc(C5CC5)nc(N5CC(=O)N(C)C5=O)c4n3)n2)n1 [Example 87, (1S,2S)—N-(4-((6-cyclopropyl-8-(3-methyl-2,4-dioxoimidazolidin-1-yl)imidazo[1,2-a]pyrazin-2-yl)methoxy)-6-methyl-1,3,5-triazin-2-yl)-2-(4-methylpyrimidin-2-yl)cyclopropane-1-carboxamide]	< 0.0025 µM	0.5 to 5 µM
Cc1ccnc([C@H]2C[C@@H]2C(=O)Nc2cc(NCc3cc(N4CC(=O)N(C)C4=O)c4ncc(C5CC5)cc4c3)ncn2)n1 [Example 98, (1S,2S)—N-(6-(((3-cyclopropyl-8-(3-methyl-2,4-dioxoimidazolidin-1-yl)quinolin-6-yl)methyl)amino)pyrimidin-4-yl)-2-(4-methylpyrimidin-2-yl)cyclopropane-1-carboxamide]	< 0.0025 µM	< 0.5 µM
N#Cc1ccc(Cl)cc1[C@H]1C[C@@H]1C(=O)Nc1cc(NCc2cn3cc(C4CC4)cnc3n2)ccn1 (racemic) [Example 22, rac-(1S*,2S*)-2-(5-chloro-2-cyanophenyl)-N-(4-(((6-cyclopropylimidazo[1,2-a]pyrimidin-2-yl)methyl)amino)pyridin-2-yl)cyclopropane-1-carboxamide]	< 0.0025 µM	5 to 65 µM
Cc1ccnc([C@H]2C[C@@H]2C(=O)Nc2cc(N3C[C@@H](O)C[C@@H]3c3ccc(N4CC5CC5C4)nc3)ncn2)n1 (relative stereo) [Example 71, rac-(1S*,2S*)—N-(6-((2R^•,4S)-2-(6-(3-azabicyclo[3.1.0]hexan-3-yl)pyridin-3-yl)-4-hydroxypyrrolidin-1-yl)pyrimidin-4-yl)-2-(4-methylpyrimidin-2-yl)cyclopropane-1-carboxamide]	0.0025 to 0.025 µM	0.5 to 5 µM
Cc1ccnc([C@H]2C[C@@H]2C(=O)Nc2cc(N(C)Cc3cn4cc(C5CC5)cnc4n3)nc(C)n2)n1 [Example 90, (1S,2S)—N-(6-(((6-cyclopropylimidazo[1,2-a]pyrimidin-2-yl)methyl)(methyl)amino)-2-methylpyrimidin-4-yl)-2-(4-methylpyrimidin-2-yl)cyclopropane-1-carboxamide]	< 0.0025 µM	5 to 65 µM
O=C(Nc1cc(NCc2cc3cc(C4CC4)cnc3s2)ccn1)[C@H]1C[C@@H]1c1cccc(Cl)c1 [Example 23, (1S,2S)-2-(3-chlorophenyl)-N-(4-(((5-cyclopropylthieno[2,3-b]pyridin-2-yl)methyl)amino)pyridin-2-yl)cyclopropane-1-carboxamide]	< 0.0025 µM	5 to 65 µM
Cc1ccnc([C@H]2C[C@@H]2C(=O)Nc2nccc(NCc3cn4cc(C5CC5)cnc4n3)n2)n1 (racemic) [Example 77, rac-(1S*,2S*)—N-(4-(((6-cyclopropylimidazo[1,2-a]pyrimidin-2yl)methyl)amino)pyrimidin-2-yl)-2-(4-methylpyrimidin-2-yl)cyclopropane-1-carboxamide]	< 0.0025 µM	0.5 to 5 µM
Cc1ccnc([C@H]2C[C@@H]2C(=O)Nc2nncc(N[C@H](C)c3cc4cc(C5CC5)cc(N5CC6CC6C5=O)n4n3)n2)n1 (stereo partly drawn) [Example 105, (1S,2S)—N-(5-(((1R^•)-1-(5-cyclopropyl-7-(2-oxo-3-azabicyclo[3.1.0]hexan-3-yl)pyrazolo[1,5-a]pyridin-2-yl)ethyl)amino)-1,2,4-triazin-3-yl)-2-(4-methylpyrimidin-2-yl)cyclopropane-1-carboxamide]	< 0.0025 µM	< 0.5 µM

More lines, now with the values ahead:

EC50 [1]	IC90 (plasma kallikrein)	Structure (SMILES)
< 0.0025 µM	0.5 to 5 µM	O=C(Nc1cc(NCc2nc3ncc(C4CC4)cn3n2)ccn1)[C@H]1C[C@@H]1c1cccc(Cl)c1 [Example 31, (1S,2S)-2-(3-chlorophenyl)-N-(4-(((6-cyclopropyl-[1,2,4]triazolo[1,5-a]pyrimidin-2-yl)methyl)amino)pyridin-2-yl)cyclopropane-1-carboxamide]
< 0.0025 µM	5 to 65 µM	O=C(Nc1cc(NCc2nc3ccc(C4CC4)cn3n2)ccn1)[C@H]1C[C@@H]1c1cccc(Cl)c1 [Example 25, (1S,2S)-2-(3-chlorophenyl)-N-(4-(((6-cyclopropyl-[1,2,4]triazolo[1,5-a]pyridin-2-yl)methyl)amino)pyridin-2-yl)cyclopropane-1-carboxamide]
0.0025 to 0.025 µM	5 to 65 µM	O=C(Nc1cc(NCc2nc3ccc(C4CC4)nn3n2)ccn1)[C@H]1C[C@@H]1c1cccc(Cl)c1 [Example 29, (1S,2S)-2-(3-chlorophenyl)-N-(4-(((6-cyclopropyl-[1,2,4]triazolo[1,5-b]pyridazin-2-yl)methyl)amino)pyridin-2-yl)cyclopropane-1-carboxamide]
< 0.0025 µM	0.5 to 5 µM	O=C(Nc1cc(N2C[C@@H](O)C[C@@H]2c2cn3nc(C4CC4)ccc3n2)ncn1)[C@H]1C[C@@H]1c1cc(Cl)ccn1 [Example 61, (1S,2S)-2-(4-chloropyridin-2-yl)-N-(6-((2R,4S)-2-(6-cyclopropylimidazo[1,2-b]pyridazin-2-yl)-4-hydroxypyrrolidin-1-yl)pyrimidin-4-yl)cyclopropane-1-carboxamide]
< 0.0025 µM	5 to 65 µM	CN1CCN(c2cc(C3CC3)nn3cc(CNc4cc(NC(=O)[C@H]5C[C@@H]5c5cccc(Cl)c5)ncn4)nc23)CC1 [Example 39, (1S,2S)-2-(3-chlorophenyl)-N-(6-(((6-cyclopropyl-8-(4-methylpiperazin-1-yl)imidazo[1,2-b]pyridazin-2-yl)methyl)amino)pyrimidin-4-yl)cyclopropane-1-carboxamide]
< 0.0025 µM	0.5 to 5 µM	Cc1ccnc([C@H]2C[C@@H]2C(=O)Nc2cc(N(C)Cc3nc4cc(C5CC5)cc(N5CC(=O)N(C)C5=O)c4[nH]3)nc(C)n2)n1 [Example 86, (S,2S)—N-(6-(((5-cyclopropyl-7-(3-methyl-2,4-dioxoimidazolidin-1-yl)-1H-benzo[d]imidazol-2-yl)methyl)(methyl)amino)-2-methylpyrimidin-4-yl)-2-(4-methylpyrimidin-2-yl)cyclopropane-1-carboxamide]
< 0.0025 µM	0.5 to 5 µM	CN1C(=O)CN(c2cc(C3CC3)cc3cc(CNc4cc(NC(=O)[C@H]5C[C@@H]5c5cc(Cl)ccn5)ncn4)nn23)C1=O (racemic) [Example 57, rac-(1S*,2S*)-2-(4-chloropyridin-2-yl)-N-(6-(((5-cyclopropyl-7-(3-methyl-2,4-dioxoimidazolidin-1-yl)pyrazolo[1,5-a]pyridin-2-yl)methyl)amino)pyrimidin-4-yl)cyclopropane-1-carboxamide]
